Measurements as given in PubChem BioAssay (NCI).
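How tested: cells in 96-well plates exposed to compound for 48 hours at five concentrations. Definition used: TGI = concentration required for complete inhibition of growth.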

Key:
Experiment in all cases: DTP human tumour cell line panel, 48 h
[1] = tested on: SK-MEL-5 melanoma
[2] = tested on: MDA-N
[3] = tested on: EKVX NSCLC
[4] = tested on: MDA-MB-231 breast
[5] = tested on: HT29 colon
[6] = tested on: HOP-92 NSCLC
[7] = tested on: IGROV1 ovarian
[8] = tested on: UO-31 renal
[9] = tested on: A549 NSCLC
[10] = tested on: LOX IMVI melanoma
[11] = tested on: M19-MEL melanoma
[12] = tested on: DLD-1 colon
[13] = tested on: DMS 114 small cell lung
[14] = tested on: LXFL 529 NSCLC
[15] = tested on: DMS 273 small cell lung
[16] = tested on: KM20L2 colon
[17] = tested on: HOP-18 NSCLC

| SMILES | TGI [1] | TGI [2] | TGI [3] | TGI [4] | TGI [5] | TGI [6] | TGI [7] | TGI [8] | TGI [9] | TGI [10] | TGI [11] | TGI [12] | TGI [13] | TGI [14] | TGI [15] | TGI [16] | TGI [17] |
| --- | --- | --- | --- | --- | --- | --- | --- | --- | --- | --- | --- | --- | --- | --- | --- | --- | --- |
| Cc1[nH]c2[nH]c(=S)nc(NC(N)=S)c2c1Cc1ccccc1 | 26.1 µM | 69.1 µM | > 100 µM | > 100 µM | 52 µM | > 100 µM | > 100 µM | > 100 µM | > 100 µM | 55.4 µM | – | – | – | – | – | – | – |
| O=C1C2CCCCC2C(=O)N1n1c(Cc2ccccc2)n[nH]c1=O (configuration not stated) | > 100 µM | > 100 µM | > 100 µM | > 100 µM | > 100 µM | > 100 µM | > 100 µM | > 100 µM | > 100 µM | > 100 µM | – | – | – | – | – | – | – |
| CCOC1Oc2ccccc2-c2nc(N)ncc21 (configuration not stated) | > 100 µM | > 100 µM | > 100 µM | > 100 µM | > 100 µM | > 100 µM | > 100 µM | > 100 µM | > 100 µM | > 100 µM | – | – | – | – | – | – | – |
| C[C@@H]1C[C@@H]2C(=O)N(c3ccccc3)C(=O)[C@@H]2c2[nH]c3ccc(Br)cc3c21 | > 100 µM | – | > 100 µM | – | – | 62.2 µM | > 100 µM | > 100 µM | 90.1 µM | > 100 µM | > 100 µM | > 100 µM | > 100 µM | > 100 µM | > 100 µM | > 100 µM | 62.4 µM |
| CCOC(=O)/C=C(/C(=O)OCC)n1cc(C)c(=O)[nH]c1=O | 21.1 µM | 17.7 µM | 15.6 µM | 18.4 µM | 15.1 µM | 3.72 µM | 12.9 µM | 23.5 µM | 31.5 µM | 5.94 µM | – | – | – | – | – | – | – |
| O=C(O)C(C(F)(F)F)C(F)(F)F (tested in a mixture with another compound) | > 100 µM | > 100 µM | > 100 µM | > 100 µM | > 100 µM | > 100 µM | > 100 µM | > 100 µM | > 100 µM | > 100 µM | – | – | – | – | – | – | – |
| CCOC(=O)/C(=C/c1ccccc1)N(CC)CC | > 100 µM | – | > 100 µM | – | > 100 µM | > 100 µM | > 100 µM | > 100 µM | > 100 µM | > 100 µM | > 100 µM | – | > 100 µM | > 100 µM | > 100 µM | > 100 µM | – |
| O=C(Cc1ccccc1)Nc1nc2ccc(Cl)cc2c2nc(-c3ccco3)nn12 | > 100 µM | > 100 µM | > 100 µM | > 100 µM | > 100 µM | 57.1 µM | > 100 µM | > 100 µM | > 100 µM | > 100 µM | – | – | – | – | – | – | – |
| Oc1c(O)c(Cc2ccccc2)c(Cc2ccccc2)c(Cc2ccccc2)c1Cc1ccccc1 | > 10 µM | > 10 µM | > 10 µM | > 10 µM | > 10 µM | > 10 µM | > 10 µM | > 10 µM | > 10 µM | > 10 µM | – | – | – | – | – | – | – |
| NC(=S)NN=C1Cc2ccccc2C1 | > 100 µM | > 100 µM | > 100 µM | > 100 µM | > 100 µM | > 100 µM | > 100 µM | > 100 µM | > 100 µM | > 100 µM | – | – | – | – | – | – | – |
